Source: patent US6534516B1, “Androgen receptor modulator compounds and methods” (Ligand Pharmaceuticals Incorporated, priority 1996, dated 2003)

Columns and labels:
MR = target: T1, MR (Homo sapiens, UniProt P08235); experiment: Co-transfection assay, cross-reactivity on MR; type: cell-based
T1 construct: expressed in transfected cells
T1 sequence (P08235 1-984): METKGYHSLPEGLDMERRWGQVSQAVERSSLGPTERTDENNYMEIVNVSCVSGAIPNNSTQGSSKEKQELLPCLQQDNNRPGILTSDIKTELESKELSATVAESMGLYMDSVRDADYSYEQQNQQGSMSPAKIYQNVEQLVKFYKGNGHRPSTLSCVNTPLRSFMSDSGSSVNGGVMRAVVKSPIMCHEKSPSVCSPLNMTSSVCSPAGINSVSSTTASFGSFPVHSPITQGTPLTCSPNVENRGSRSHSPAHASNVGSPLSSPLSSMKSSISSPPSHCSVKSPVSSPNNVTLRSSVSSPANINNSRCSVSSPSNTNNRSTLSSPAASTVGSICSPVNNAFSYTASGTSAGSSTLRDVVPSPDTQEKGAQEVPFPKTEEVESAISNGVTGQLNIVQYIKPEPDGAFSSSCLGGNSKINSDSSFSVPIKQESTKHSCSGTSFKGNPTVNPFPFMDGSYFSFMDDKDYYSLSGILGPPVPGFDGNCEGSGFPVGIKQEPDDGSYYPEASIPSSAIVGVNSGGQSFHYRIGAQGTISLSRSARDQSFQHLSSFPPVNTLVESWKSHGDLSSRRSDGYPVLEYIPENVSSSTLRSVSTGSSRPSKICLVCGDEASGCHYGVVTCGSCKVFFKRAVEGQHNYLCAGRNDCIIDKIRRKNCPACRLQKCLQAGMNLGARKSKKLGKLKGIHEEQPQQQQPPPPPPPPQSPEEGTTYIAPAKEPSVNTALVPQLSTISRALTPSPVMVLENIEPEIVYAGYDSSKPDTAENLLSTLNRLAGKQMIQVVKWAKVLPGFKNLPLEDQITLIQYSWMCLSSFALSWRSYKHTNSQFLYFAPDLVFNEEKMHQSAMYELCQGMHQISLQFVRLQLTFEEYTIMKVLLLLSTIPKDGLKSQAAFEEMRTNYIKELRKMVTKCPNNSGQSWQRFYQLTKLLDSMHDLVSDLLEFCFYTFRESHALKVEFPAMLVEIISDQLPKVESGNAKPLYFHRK

PR = target: T2, PR (Homo sapiens, UniProt P06401); experiment: cell-based
T2 sequence (P06401 1-933): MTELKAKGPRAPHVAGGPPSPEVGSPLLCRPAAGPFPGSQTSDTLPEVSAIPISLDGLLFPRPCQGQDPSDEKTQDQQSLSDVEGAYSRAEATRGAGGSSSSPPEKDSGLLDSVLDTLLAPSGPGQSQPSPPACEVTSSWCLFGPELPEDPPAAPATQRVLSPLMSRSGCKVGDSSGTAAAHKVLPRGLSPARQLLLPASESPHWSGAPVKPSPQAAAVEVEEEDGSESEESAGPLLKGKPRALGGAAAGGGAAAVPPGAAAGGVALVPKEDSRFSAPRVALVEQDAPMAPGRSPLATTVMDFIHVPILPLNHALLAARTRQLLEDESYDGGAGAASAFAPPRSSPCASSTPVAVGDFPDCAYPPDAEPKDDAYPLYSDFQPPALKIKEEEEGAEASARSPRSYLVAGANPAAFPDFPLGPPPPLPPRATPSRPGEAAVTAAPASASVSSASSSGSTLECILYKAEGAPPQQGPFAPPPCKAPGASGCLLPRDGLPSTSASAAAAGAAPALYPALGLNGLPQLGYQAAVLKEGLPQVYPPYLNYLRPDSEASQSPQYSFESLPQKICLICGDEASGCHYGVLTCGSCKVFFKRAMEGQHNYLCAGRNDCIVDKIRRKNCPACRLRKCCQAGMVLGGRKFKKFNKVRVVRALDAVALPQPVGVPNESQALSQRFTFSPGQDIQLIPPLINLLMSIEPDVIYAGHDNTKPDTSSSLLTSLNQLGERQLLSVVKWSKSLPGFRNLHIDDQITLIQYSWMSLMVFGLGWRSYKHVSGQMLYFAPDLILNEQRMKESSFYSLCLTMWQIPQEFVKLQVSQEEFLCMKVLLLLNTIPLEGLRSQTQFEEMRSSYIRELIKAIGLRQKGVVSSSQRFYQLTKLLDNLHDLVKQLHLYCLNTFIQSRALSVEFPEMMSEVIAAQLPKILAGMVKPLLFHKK

Cn1c(=O)cc(C(F)(F)F)c2cc3c(cc21)N1CCCC1(C)CC3 (racemic) [Compound 103, (R/S)-6,7,7a,11-Tetrahydro-1,7a-dimethyl-4-trifluoromethyl-2-pyridono[5,6-g]pyrrolidino[1,2-a]quinoline]
IC50 (MR): 1.59 µM
IC50 (PR): 5.94 µM
